Experiments:
rat [1] = conditions: Prenatal developmental toxicity study, sprague dawley, Oral, Gavage/Intubation, dose end: 19 GD
dog [2] = conditions: Chronic toxicity, beagle, Oral, Feed, dose end: 104 week
mouse = conditions: Carcinogenicity, swiss albino, Oral, Feed, dose end: 78 week
dog [3] = conditions: Combined chronic toxicity/carcinogenicity, beagle, Oral, Feed, dose end: 104 week
dog [4] = conditions: Chronic toxicity; beagle; Oral; Feed; dose end: 52 week; group: systemic; systemic / in life observation / body weight / body weight + systemic / organ weight / spleen / absolute + systemic / organ weight / spleen…
rat [5] = conditions: Subchronic oral toxicity in rodents, sprague dawley, Gavage/Intubation, dose end: 94 day
rabbit = conditions: Prenatal developmental toxicity study; new zealand white; Oral; Gavage/Intubation; dose end: 19 GD; group: maternal; reproductive / reproductive performance / postimplantation loss / postimplantation loss + reproductive / reproductive performance / …
rat [6] = conditions: Multigenerational reproductive toxicity study, sprague dawley, Oral, Feed, dose end: 2 generation
rat [7] = conditions: Combined chronic toxicity/carcinogenicity, sprague dawley, Oral, Feed, dose end: 104 week
[8] = group: developmental, systemic / in life observation / body weight / fetal weight
[9] = group: maternal, systemic / in life observation / mortality / mortality + systemic / pathology microscopic / liver / hepatitis + systemic / pathology …
[10] = group: cholinesterase, cholinesterase / cholinesterase / cholinesterase / plasma cholinesterase (che)
[11] = group: systemic, systemic / pathology microscopic / intestine small / hypertrophy + systemic / pathology microscopic / stomach / hypertrophy + systemic / …
[12] = group: cholinesterase, cholinesterase / cholinesterase / cholinesterase / erythrocyte cholinesterase (che) + cholinesterase / cholinesterase / cholinesterase / …
[13] = group: systemic, systemic / in life observation / body weight / body weight + systemic / in life observation / body weight / body weight gain + systemic / in…
[14] = group: systemic, systemic / pathology microscopic / intestine small / hypertrophy + systemic / in life observation / clinical signs / soft stools + systemic…
[15] = group: cholinesterase, cholinesterase / cholinesterase / cholinesterase / plasma cholinesterase (che) + cholinesterase / cholinesterase / cholinesterase / brain …
[16] = group: systemic, systemic / organ weight / liver / relative to body weight + systemic / organ weight / ovary / absolute + systemic / organ weight / ovary / …
[17] = group: offspring, systemic / in life observation / body weight / offspring (pup) weight
[18] = group: offspring, systemic / in life observation / body weight / offspring (pup) weight + developmental / offspring survival late / viability index / …
[19] = group: parental, systemic / in life observation / body weight / body weight + systemic / in life observation / food consumption / food consumption + systemic…
[20] = group: systemic, systemic / clinical chemistry / alkaline phosphatase (alp/alk) / alkaline phosphatase (alp/alk) + systemic / in life observation / body …

Question: Which results are given for `O=P(O)(O)CCCl` [Ethephon]?
Answer: LEL (rat [1]; [8]): 1800 mg/kg/day; LOAEL (rat [1]; [8]): 1800 mg/kg/day; NEL (rat [1]; [8]): 600 mg/kg/day; NOAEL (rat [1]; [8]): 600 mg/kg/day; LEL (rat [1]; [9]): 1800 mg/kg/day; LOAEL (rat [1]; [9]): 1800 mg/kg/day; NEL (rat [1]; [9]): 600 mg/kg/day; NOAEL (rat [1]; [9]): 600 mg/kg/day; LOAEL (dog [2]; group: cholinesterase, cholinesterase / cholinesterase / cholinesterase / erythrocyte cholinesterase (che)): 7.5 mg/kg/day; LEL (dog [2]; [10]): 0.75 mg/kg/day; NEL (dog [2]; [10]): < 0.75 mg/kg/day; NOAEL (dog [2]; group: cholinesterase, cholinesterase / cholinesterase / cholinesterase / plasma cholinesterase (che) + cholinesterase / cholinesterase / cholinesterase / …): 0.75 mg/kg/day; LEL (dog [2]; group: systemic, systemic / pathology microscopic / intestine small / hypertrophy + systemic / pathology microscopic / stomach / hypertrophy): 7.5 mg/kg/day; LOAEL (dog [2]; [11]): > 75 mg/kg/day; NEL (dog [2]; [11]): 0.75 mg/kg/day; NOAEL (dog [2]; [11]): ≥ 75 mg/kg/day; LEL (mouse; [12]): 156 mg/kg/day; LOAEL (mouse; [12]): > 7750 mg/kg/day; NEL (mouse; [12]): 15.5 mg/kg/day; NOAEL (mouse; [12]): ≥ 7750 mg/kg/day; LOAEL (mouse; group: systemic, systemic / in life observation / body weight / body weight + systemic / in life observation / body weight / body weight gain): 1630 mg/kg/day; NEL (mouse; [13]): 156 mg/kg/day; NOAEL (mouse; [13]): 156 mg/kg/day; LEL (mouse; group: systemic, systemic / in life observation / body weight / body weight + systemic / in life observation / body weight / body weight gain + systemic / …): 1630 mg/kg/day; LEL (dog [3]; [10]): 0.75 mg/kg/day; LOAEL (dog [3]; [10]): 0.75 mg/kg/day; NEL (dog [3]; [10]): < 0.75 mg/kg/day; NOAEL (dog [3]; [10]): < 0.75 mg/kg/day; LEL (dog [3]; [14]): 7.5 mg/kg/day; LOAEL (dog [3]; [14]): > 37.5 mg/kg/day; NEL (dog [3]; [14]): 0.75 mg/kg/day; NOAEL (dog [3]; [14]): ≥ 37.5 mg/kg/day; LEL (dog [4]): 52.1 mg/kg/day; LOAEL (dog [4]): 52.1 mg/kg/day; NEL (dog [4]): 28.5 mg/kg/day; NOAEL (dog [4]): 28.5 mg/kg/day; LEL (rat [5]; [10]): 50 mg/kg/day; NEL (rat [5]; [10]): < 50 mg/kg/day; LOAEL (rat [5]; [15]): > 200 mg/kg/day; NOAEL (rat [5]; [15]): ≥ 200 mg/kg/day; LEL (rat [5]; [16]): 200 mg/kg/day; LOAEL (rat [5]; [16]): 200 mg/kg/day; NEL (rat [5]; [16]): 100 mg/kg/day; NOAEL (rat [5]; [16]): 100 mg/kg/day; LEL (rabbit): 250 mg/kg/day; LOAEL (rabbit): 250 mg/kg/day; NEL (rabbit): 125 mg/kg/day; NOAEL (rabbit): 125 mg/kg/day; LEL (rat [6]; [17]): 198 mg/kg/day; LOAEL (rat [6]; [17]): 198 mg/kg/day; NEL (rat [6]; [18]): 19.8 mg/kg/day; NOAEL (rat [6]; [18]): 19.8 mg/kg/day; LEL (rat [6]; [19]): 245 mg/kg/day; LOAEL (rat [6]; [19]): 245 mg/kg/day; NEL (rat [6]; [19]): 23.7 mg/kg/day; NOAEL (rat [6]; [19]): 23.7 mg/kg/day; LEL (rat [7]; [12]): 150 mg/kg/day; LOAEL (rat [7]; [12]): 150 mg/kg/day; NEL (rat [7]; [12]): 15 mg/kg/day; NOAEL (rat [7]; [12]): 15 mg/kg/day; LEL (rat [7]; [20]): 15 mg/kg/day; LOAEL (rat [7]; [20]): > 150 mg/kg/day; NEL (rat [7]; [20]): 1.5 mg/kg/day; NOAEL (rat [7]; [20]): ≥ 150 mg/kg/day
